# Experimental data from patent US9464064B2, “HCV helicase inhibitors and methods of use thereof” (University of Kansas, priority 2011, dated 2016).
# Like-named read-outs stand apart in the source and are kept apart here.
# How the values were obtained:
# NS3h_2a = biological target: T1, NS3h_2a (Hepatitis C virus genotype 2a, UniProt Q99IB8); test: RNA helicase assay (three-stranded RNA substrate); type: biochemical, hepatitis C virus genotype 2a(JFH1)
# T1 construct: truncated C-terminally His-tagged NS3 proteins lacking the N-terminal protease, called NS3h; His-tag (C); made in house
# Description: To act as antivirals in cells, it is also important for an HCV helicase inhibitor to inhibit the activity of the NS3h on RNA. […] As with protein specificity, no differences were uncovered regarding substrate specificity for any of the compounds tested. In other words, none of the compounds preferred to act either on DNA or RNA substrates.
# NS3h_1b(con1) = biological target: T2, NS3h_1b(con1) (Hepatitis C virus genotype 1b, UniProt Q9WMX2); test: RNA-stimulated ATP hydrolysis, pH 7.5, HCV; type: biochemical, hepatitis C virus genotype 1b(con1)
# T2 construct: truncated C-terminally His-tagged NS3 proteins lacking the N-terminal protease, called NS3h; His-tag (C); made in house
# Description: (§1) To compare the effect of compounds on HCV NS3h_1b (con1) to NS3h_DV2, reactions were performed with 2 nM of either enzyme in 25 mM Tris pH 7.5, 1.25 mM MgCl2, 1.0 mM ATP, 10% DMSO, 5 μg/ml BSA, 0.01% (v/v) TWEEN 20, 0.05 mM DTT, and 10 μM poly(U) RNA at 37° C.
# To further profile compound specificity, it was determined whether the compounds would inhibit homologous NS3h expressed by the Dengue virus (NS3h_DV2). […] The same assays were also repeated with HCV NS3h_1b(con1) for comparison. […] However, most of the primuline derivatives were relatively potent inhibitors of RNA-stimulated ATP hydrolysis catalyzed by the Dengue enzyme under the same conditions.
# NS3h_DV2 = biological target: T3, NS3h_DV2 (Dengue virus type 2, UniProt P29990); test: RNA-stimulated ATP hydrolysis, pH 7.5, Dengue; type: biochemical; settings: 10 μM poly(U) RNA, read-out: ATPase w/RNA NS3h_DV2 IC50 (μM) ± SD
# T3 construct: made in house
# Description: as §1
# To further profile compound specificity, it was determined whether the compounds would inhibit homologous NS3h expressed by the Dengue virus (NS3h_DV2). […] The same assays were also repeated with HCV NS3h_1b(con1) for comparison.
# scNS4A-NS3 = scNS4A-NS3 (Hepatitis C virus genotype 1b, UniProt Q9WMX2); test: NS3 protease assay (ENZOLYTE 520), full-length; type: biochemical, hepatitis C virus genotype 1b(con1); parameters: other: average of two sets; There is also a His tag
# Description: (§2) All oligonucleotides were purchased from Integrated DNA Technologies (IDT, Coralville, Iowa). Primuline derivatives were synthesized and purified as described herein. Three different NS3 proteins were used in this study. Two were truncated C-terminally His-tagged NS3 proteins lacking the N-terminal protease, called NS3h, the third was a full-length NS3 with the portion of NS4A needed for protease activation fused to its N-terminus, called scNS4A-NS3 (Howe, et al. (1999) Protein Sci. 8:1332-41), and the fourth was a 23 kDa scNS4A-NS3 protease fragment lacking the helicase domains, called scNS4A-NS3p (Protein One, Rockville, Md.). NS3h was expressed from two different HCV strains. NS3h_1b(con1) was from the con1 strain of genotype 1b (GENBANK accession AB114136), and NS3h_2a(JFH1) was from the JFH1 strain of HCV genotype 2a (GENBANK accession AJ238799). […] His-tagged recombinant NS3h_1b(con1), NS3h_2a(JFH1), and scNS4A-NS3 (also from genotype 1b(con1)) were expressed, and purified as previously described (Frick, et al. (2010) supra; Lam, et al. (2003) J. Virol. 77:3950-3961). The scNS4A-NS3p (genotype 1b) was from Protein One. A plasmid expressing NS3h from dengue virus strain 2 (NS3h_DV2)(GENBANK accession 2BMF) is known in the art (Xu, et al. (2005) J. Virol. 79:10278-10288), and used to express and purify NS3h_DV2 (Belon, et al. (2010) supra)
# (§3) All NS3 protease assays were carried out using the 5-Carboxyfluorescein-labeled substrate from the AnaSpec. ENZOLYTE 520 Protease Assay Kit (AnaSpec, San Jose, Calif.). Each assay contained 5 nM scNS4A-NS3 or 50 nM scNS4A-NS3p, […], 5% DMSO and 1× Anaspec HCV protease assay buffer. Assays were carried out in a total volume of 20 μl in black 384-well plates with fluorescence at 520 nm measured using a BMG FLUOstar Omega fluorescence spectrophotometer. Reactions were performed with eight concentrations of a two-fold dilution series of each compound (in duplicate) starting at 100 μM.
# [1] = Aqueous solubility (direct UV kinetic); type: physicochemical; settings: kinetic from dmso stock
# Description: Solubility analysis was performed using a direct UV kinetic solubility method in a 96-well format. All liquid dispense and transfer steps were performed with the FREEDOM EVO automated liquid handler (Tecan, US). Solubility measurements were performed in an aqueous buffer solution (PRISMA HT, pION Inc.) at pH 5.0, 6.2 and 7.4, in duplicate. Solubility measurements were also performed in 1×PBS pH 7.4, and in MOPS buffer pH 6.5. Samples were incubated at room temperature for a minimum of […] to achieve equilibrium, then filtered to remove any precipitate formed. The concentration of the compounds was measured by UV absorbance (250-498 nm) using the […] M200 (Tecan, US) and compared to the spectra of the precipitation-free reference solutions. Spectroscopically pure 1-Propanol (Sigma) was used as a cosolvent to suppress precipitation in the reference solutions. The solubility of each compound was determined using pSOL Evolution Plus software v3.2 (pION Inc) and was expressed as the concentration (μg/mL) of a solute in a saturated solution. Diclofenac Na (highly soluble) and Dipyridamole (poorly to moderately soluble) were used as standards. Standards and test compound stocks were made in 100% DMSO. […]
# scNS4A-NS3p = biological target: T4, scNS4A-NS3p (UniProt P26663); test: NS3 protease assay (ENZOLYTE 520), protease fragment; type: biochemical, hepatitis C virus genotype 1b; settings: read-out: Protease ScNS4a-NS3p IC50 (μM) ± SD; one set of assays
# T4 construct: fused on or other part: NS4A cofactor peptide, from the same polyprotein, fused to the NS3 protease fragment
# Description: as §2, §3
# [2] = aqueous with cosolvent or surfactant or cyclodextrin, mock assay matrix (MOPS, TWEEN 20, 5% DMSO) at pH 6.5, read-out: solubility
# T2 sequence (Q9WMX2 1192-1657): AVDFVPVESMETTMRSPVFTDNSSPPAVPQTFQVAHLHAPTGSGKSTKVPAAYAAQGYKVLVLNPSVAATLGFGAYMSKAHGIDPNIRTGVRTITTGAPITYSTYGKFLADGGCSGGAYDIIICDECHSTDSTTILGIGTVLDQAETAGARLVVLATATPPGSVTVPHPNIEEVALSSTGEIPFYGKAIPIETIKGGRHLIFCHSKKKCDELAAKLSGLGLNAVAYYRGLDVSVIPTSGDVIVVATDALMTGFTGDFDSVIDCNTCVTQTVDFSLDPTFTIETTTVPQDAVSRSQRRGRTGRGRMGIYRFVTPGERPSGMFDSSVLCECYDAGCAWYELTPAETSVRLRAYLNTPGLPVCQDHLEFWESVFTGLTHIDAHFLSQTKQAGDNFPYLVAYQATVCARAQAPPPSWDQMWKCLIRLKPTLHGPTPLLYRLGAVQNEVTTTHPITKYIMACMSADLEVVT
# T4 sequence (P26663 1027-1657): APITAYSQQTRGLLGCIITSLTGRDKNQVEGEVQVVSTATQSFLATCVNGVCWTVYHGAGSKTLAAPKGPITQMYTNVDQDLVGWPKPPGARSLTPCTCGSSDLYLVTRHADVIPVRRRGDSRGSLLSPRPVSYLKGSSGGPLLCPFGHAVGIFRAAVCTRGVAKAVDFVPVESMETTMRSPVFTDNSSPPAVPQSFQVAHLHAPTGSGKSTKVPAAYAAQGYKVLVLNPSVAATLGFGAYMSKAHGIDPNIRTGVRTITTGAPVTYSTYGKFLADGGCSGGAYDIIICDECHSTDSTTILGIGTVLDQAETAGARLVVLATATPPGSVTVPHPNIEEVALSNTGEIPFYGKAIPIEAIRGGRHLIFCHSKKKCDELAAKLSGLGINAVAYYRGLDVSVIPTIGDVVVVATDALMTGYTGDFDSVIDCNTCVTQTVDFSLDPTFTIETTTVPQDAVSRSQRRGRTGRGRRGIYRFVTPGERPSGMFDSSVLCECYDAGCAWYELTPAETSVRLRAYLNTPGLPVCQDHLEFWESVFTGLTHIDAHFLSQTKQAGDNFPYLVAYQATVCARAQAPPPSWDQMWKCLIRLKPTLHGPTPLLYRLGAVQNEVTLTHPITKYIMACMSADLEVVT
# T1 sequence (Q99IB8 1196-1661): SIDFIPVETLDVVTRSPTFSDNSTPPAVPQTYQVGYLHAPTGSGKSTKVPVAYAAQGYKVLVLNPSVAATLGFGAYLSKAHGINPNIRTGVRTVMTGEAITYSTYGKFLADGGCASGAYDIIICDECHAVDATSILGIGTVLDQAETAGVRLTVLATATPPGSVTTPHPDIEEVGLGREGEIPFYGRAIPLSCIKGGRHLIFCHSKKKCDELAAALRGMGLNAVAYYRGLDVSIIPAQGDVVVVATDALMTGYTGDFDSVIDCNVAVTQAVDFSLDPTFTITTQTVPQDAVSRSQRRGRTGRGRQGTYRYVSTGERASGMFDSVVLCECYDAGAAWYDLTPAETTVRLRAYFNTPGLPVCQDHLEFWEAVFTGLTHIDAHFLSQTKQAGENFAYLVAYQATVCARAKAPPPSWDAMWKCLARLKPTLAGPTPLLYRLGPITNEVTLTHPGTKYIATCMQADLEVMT
# T3 sequence (P29990 1646-2093): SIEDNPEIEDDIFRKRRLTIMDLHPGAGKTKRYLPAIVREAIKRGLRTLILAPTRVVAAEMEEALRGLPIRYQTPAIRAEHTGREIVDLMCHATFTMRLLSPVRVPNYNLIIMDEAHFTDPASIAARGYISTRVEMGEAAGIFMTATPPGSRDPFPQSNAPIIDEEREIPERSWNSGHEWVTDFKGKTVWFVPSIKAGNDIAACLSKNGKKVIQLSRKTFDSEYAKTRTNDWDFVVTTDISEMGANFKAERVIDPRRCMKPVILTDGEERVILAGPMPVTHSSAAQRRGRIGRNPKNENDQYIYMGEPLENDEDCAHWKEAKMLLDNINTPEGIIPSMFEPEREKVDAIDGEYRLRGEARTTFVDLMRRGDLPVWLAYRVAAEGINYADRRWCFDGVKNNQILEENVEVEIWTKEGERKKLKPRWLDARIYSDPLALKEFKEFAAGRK
# Sequence of scNS4A-NS3 (Q9WMX2 1027-1657): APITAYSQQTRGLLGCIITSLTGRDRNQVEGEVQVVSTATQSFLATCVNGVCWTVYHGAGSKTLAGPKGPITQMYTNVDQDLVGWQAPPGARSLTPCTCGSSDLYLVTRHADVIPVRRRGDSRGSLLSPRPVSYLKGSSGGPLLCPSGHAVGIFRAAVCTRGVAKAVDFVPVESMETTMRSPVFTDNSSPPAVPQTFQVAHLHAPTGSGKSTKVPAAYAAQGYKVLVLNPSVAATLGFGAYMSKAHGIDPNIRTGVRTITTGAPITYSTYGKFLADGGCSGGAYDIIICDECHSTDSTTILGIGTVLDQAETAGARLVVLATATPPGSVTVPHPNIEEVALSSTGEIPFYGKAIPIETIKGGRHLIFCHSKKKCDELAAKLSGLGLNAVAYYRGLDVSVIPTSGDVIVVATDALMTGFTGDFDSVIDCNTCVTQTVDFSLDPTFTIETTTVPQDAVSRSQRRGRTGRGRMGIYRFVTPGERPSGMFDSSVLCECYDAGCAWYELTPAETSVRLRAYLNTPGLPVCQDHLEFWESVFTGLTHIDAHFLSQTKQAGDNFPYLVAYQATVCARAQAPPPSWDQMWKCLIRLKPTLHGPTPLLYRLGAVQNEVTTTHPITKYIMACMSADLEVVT
SMILES,IC50 (NS3h_2a) [µM],IC50 (NS3h_1b(con1)) [µM],IC50 (NS3h_DV2) [µM],IC50 (scNS4A-NS3) [µM],"solubility [1, 2] [µM]",IC50 (scNS4A-NS3p) [µM],"solubility ([1]; 1×PBS, pH 7.4, aqueous buffer, read-out: Aqueous Solubility, PBS) [µg/mL]","solubility ([1]; PRISMA HT aqueous buffer, aqueous buffer, pH 5.0, read-out: Aqueous Solubility, Prisma HT buffer) [µg/mL]","solubility ([1]; PRISMA HT aqueous buffer, pH 6.2, aqueous buffer, read-out: Aqueous Solubility, Prisma HT buffer) [µg/mL]","solubility ([1]; PRISMA HT aqueous buffer, pH 7.4, aqueous buffer, read-out: Aqueous Solubility, Prisma HT buffer) [µg/mL]","solubility ([1]; mock assay matrix with TWEEN 20, 5% DMSO, pH 6.5, aqueous with cosolvent or surfactant or cyclodextrin, read-out: Aqueous Solubility, Assay Matrix) [µg/mL]","solubility ([1]; aqueous buffer, MOPS buffer (25 mM MOPS, 1.25 mM MgCl2, 2% DMSO) at pH 6.5, read-out: solubility) [µM]"
"Cc1ccc2nc(-c3ccc4nc(-c5ccc(NC(=O)c6ccc(N)cc6)cc5)sc4c3)sc2c1S(=O)(=O)O [Compound 6, 2′-(4-(4-aminobenzamido)phenyl)-6-methyl-[2,6′-bibenzo[d]thiazole]-7-sulfonic acid]",7 ± 3,140 ± 3,12 ± 4,39 ± 17,,,,,,,,
"Cc1ccc2nc(-c3ccc4nc(-c5ccc(NC(=O)c6ccc(F)cc6)cc5)sc4c3)sc2c1S(=O)(=O)O.N [Compound 7, 2′-(4-(4-fluorobenzamido)phenyl)-6-methyl-[2, bibenzo[d]thiazole]-7-sulfonic acid]",4 ± 2,73 ± 13,6 ± 1,89 ± 47,129,> 100,,,,,,
"Cc1ccc2nc(-c3ccc4nc(-c5ccc(NC(=O)c6ccc(C(F)(F)F)cc6)cc5)sc4c3)sc2c1S(=O)(=O)O [Compound 12, 6-methyl-2′-(4-(4-(trifluoromethyl)benzamido)phenyl)-[2,6′-bibenzo[d]thiazole]-7-sulfonic acid]",3 ± 1,16 ± 5,2 ± 0.5,5 ± 1,,7,,,,,,
"Cc1ccc2nc(-c3ccc4nc(-c5ccc(NC(=O)c6ccc(C(C)(C)C)cc6)cc5)sc4c3)sc2c1S(=O)(=O)O [Compound 13, 2′-(4-(4-(tert-butyl)benzamido)phenyl)-6-methyl-[2,6′-bibenzo[d]thiazole]-7-sulfonic acid]",9 ± 9,150 ± 40,8 ± 1,56 ± 23,,93,,,,,,
"Cc1ccc2nc(-c3ccc4nc(-c5ccc(NC(=O)c6ccc(Br)cc6)cc5)sc4c3)sc2c1S(=O)(=O)O [Compound 15, 2′-(4-(4-bromobenzamido)phenyl)-6-methyl-[2,6′-bibenzo[d]thiazole]-7-sulfonic acid]",4 ± 2,21 ± 1,3 ± 0.8,6 ± 1,,6.5,,,,,,
"Cc1ccc2nc(-c3ccc4nc(-c5ccc(NC(=O)c6cccc(Cl)c6)cc5)sc4c3)sc2c1S(=O)(=O)O [Compound 17, 2′-(4-(3-chlorobenzamido)phenyl)-6-methyl-[2,6′-bibenzo[d]thiazole]-7-sulfonic acid]",6 ± 3.1,51 ± 3,4 ± 0.6,> 100,29.2,24,0.12,36.7,> 60,> 60,17.8,
"Cc1ccc2nc(-c3ccc4nc(-c5ccc(NC(=O)c6ccc(Cl)c(Cl)c6)cc5)sc4c3)sc2c1S(=O)(=O)O [Compound 18, 2′-(4-(3,4-dichlorobenzamido)phenyl)-6-methyl-[2,6′-bibenzo[d]thiazole]-7-sulfonic acid]",4 ± 2,72 ± 13,4 ± 1,13 ± 4,2.6,6.4,,,,,,
"Cc1ccc2nc(-c3ccc4nc(-c5ccc(NC(=O)c6cc(C(F)(F)F)cc(C(F)(F)F)c6)cc5)sc4c3)sc2c1S(=O)(=O)O [Compound 24, 2′-(4-(3,5-bis(trifluoromethyl)benzamido)phenyl)-6-methyl-[2,6′-bibenzo[d]thiazole]-7-sulfonic acid]",14 ± 13,> 200,11 ± 2,23 ± 15,180,7.6,,,,,,
"Cc1ccc2nc(-c3ccc4nc(-c5ccc(NC(=O)c6cc(C(F)(F)F)ccc6F)cc5)sc4c3)sc2c1S(=O)(=O)O [Compound 25, 2′-(4-(2-fluoro-5-(trifluoromethyl)benzamido)phenyl)-6-methyl-[2,6′-bibenzo[d]thiazole]-7-sulfonic acid]",10 ± 3,19 ± 2,7 ± 0.1,51 ± 25,,> 100,,,,,,
"Cc1ccc2nc(-c3ccc4nc(-c5ccc(NC(=O)c6cccnc6)cc5)sc4c3)sc2c1S(=O)(=O)O [Compound 31, 6-methyl-2′-(4-(nicotinamido)phenyl)-[2,6′-bibenzo[d]thiazole]-7-sulfonic acid]",,,,,,,,,,,,> 100
"Cc1ccc2nc(-c3ccc4nc(-c5ccc(NC(=O)c6ccc7nc(-c8ccc(N)cc8)sc7c6)cc5)sc4c3)sc2c1S(=O)(=O)O [Compound 35, 2′-(4-(2-(4-aminophenyl)benzo[d]thiazole-6-carboxamido)phenyl)-6-methyl-[2,6′-bibenzo[d]thiazole]-7-sulfonic acid]",6 ± 5.4,150 ± 2,,7 ± 1,,20,,,,,,
"Cc1ccc2nc(-c3ccc4nc(-c5ccc(N)cc5)sc4c3)sc2c1S(=O)(=O)O [Compound P2a, 2′-(4-aminophenyl)-6-methyl-[2,6′-bibenzo[d]thiazole]-7-sulfonic acid]",32 ± 14,> 200,32 ± 17,> 100,,> 100,,,,,,
"Cc1ccc2nc(-c3ccc4nc(-c5ccc6nc(-c7ccc8nc(-c9ccc(N)cc9)sc8c7)sc6c5)sc4c3)sc2c1S(=O)(=O)O [Compound P4, 2′″-(4-aminophenyl)-6-methyl-[2,6′:2″,6′″-quaterbenzo[d]thiazole]-7-sulfonic acid]",3 ± 1.3,,0.94 ± 0.7,2 ± 1,,4.9,,,,,,
